Measured values from patent US20090148398A1, “Naturally Occurring Volatile Attractant” (priority 2007, published 2009).
Entries after “also recorded” stand apart in the source; their conditions may differ.

Experiments:
fire ant workers = assay: Fire ant alarm response; parameters: species or system Solenopsis invicta; conditions: in vivo
Protocol: Recently, the identity of a component of the fire ant alarm pheromone was determined to be 2-ethyl, 3,6-dimethyl pyrazine and the origin is the mandibular gland. […] In addition, 2-ethyl, 3,6-dimethyl pyrazine is commercially available as a mixture with the related compound, 2-ethyl, 3,5-dimethyl pyrazine.

S. invicta workers = assay: Y-tube olfactometer attraction bioassay; parameters: species or system Solenopsis invicta; conditions: in vivo
Description: All ants used in these experiments were obtained from mature, queenright, monogyne Solenopsis invicta colonies excavated from a known monogyne site in Gainesville, Fla. The colonies were separated from the dirt and set up in the laboratory at least one month prior to the experiments. Laboratory colonies were maintained on a diet of crickets, water and 10% sucrose, and kept in plastic trays (83×53×13 cm) whose inner sides were painted with poly tetrafluoroethylene compositions (ADI Fluon, ICI Americas, Bayonne, NF) to prevent, escape of the ants. Based on the above, the attraction of S. invicta workers to various concentrations of the commercially available mixture of 2-ethyl, 3,5-dimethyl pyrazine and 2-ethyl, 3,6-dimethyl pyrazine was evaluated using a Y-tube olfactometer (FIG. 5). The olfactometer is composed of two 24/40 ground glass joints 14 each ring sealed to one of the arms 24 of an approximately 5 cm Y-tube 26 such that about 1 cm of each Y-tube extends through the male half of one of the ground glass joints. An approximately 5 cm piece of about 0.6 cm tubing is ring sealed about 1 cm into the female half of the ground glass joints. […] The number of ants entering the chamber with either the control or the treatment during the 3 min were counted and recorded. […]

SMILES	alarm response of fire ant workers (fire ant workers)	attraction of fire ant workers (conclusion of olfactometer experiment) (S. invicta workers)
CCc1ncc(C)nc1C [2-ethyl, 3,5-dimethyl pyrazine]	elicit an alarm response	
CCc1nc(C)cnc1C [2-ethyl, 3,6-dimethyl pyrazine]	elicited the full range of previously reported fire ant alarm behaviors; also recorded: fire ant workers responded better	attracts fire ant workers through space
